Source: ChEMBL document CHEMBL3593229, “Identification of a potent 5-phenyl-thiazol-2-ylamine-based inhibitor of FLT3 with activity against drug resistance-conferring point mutations” (Eur J Med Chem, 2015)
Activity calls are given as the source filed them. The rule behind the calls is not given here.

Assays:
[1] = target: Tyrosine-protein kinase ABL1 (Homo sapiens) (UniProt P00519); test: Inhibition of human ABL1 at 0.1 uM relative to control
[2] = target: Tyrosine-protein kinase Blk (Homo sapiens) (UniProt P51451); test: Inhibition of human BLK at 0.1 uM relative to control
[3] = target: Glycogen synthase kinase-3 beta (Homo sapiens) (UniProt P49841); test: Inhibition of human GSK3B at 0.1 uM relative to control
[4] = target: Fibroblast growth factor receptor 1 (Homo sapiens) (UniProt P11362); test: Inhibition of human FGFR1 at 0.1 uM relative to control
[5] = target: Serine/threonine-protein kinase MRCK alpha (Homo sapiens) (UniProt Q5VT25); test: Inhibition of human MRCKA at 0.1 uM relative to control
[6] = system: Proto-oncogene tyrosine-protein kinase receptor Ret (Homo sapiens), P07949 [V804L]; test: Inhibition of human RET V804L mutant at 0.1 uM relative to control
[7] = target: Dual specificity protein kinase CLK1 (Homo sapiens) (UniProt P49759); test: Inhibition of human CLK1 at 0.1 uM relative to control
[8] = system: Receptor-type tyrosine-protein kinase FLT3 (Homo sapiens), P36888 [UNDEFINED MUTATION]; details: MOLM-13
Description: Inhibition of FLT3 ITD heterozygous mutant in human MOLM-13 cells assessed as cell growth inhibition after 72 hrs by MTS assay

[9] = target: Receptor tyrosine-protein kinase erbB-2 (Homo sapiens) (UniProt P04626); test: Inhibition of human HER2 at 0.1 uM relative to control
animal or person = details: Mus musculus, 32D, po, read-out: TGI
[10] = Plasma clearance in Sprague-Dawley rat at 2 mg/kg, iv; format: ADME, organism-based
[11] = target: Serine/threonine-protein kinase mTOR (Homo sapiens) (UniProt P42345); test: Inhibition of human mTOR at 0.1 uM relative to control
Mus musculus [12] = test: Antitumor activity against human MOLM13 cells xenografted in SCID mouse assessed as increase in survival at 25 mg/kg, po qd administered on day 8 to 12 relative to vehicle-treated control; format: functional, MOLM-13
[13] = target: Receptor-type tyrosine-protein kinase FLT3 (Homo sapiens, UniProt P36888, F691L); test: Inhibition of FLT3 ITD F691L mutant (unknown origin) phosphorylation expressed in HEK293T cells preincubated for 1 hr followed by FLT3 ligand addition for 5 mins by Western blot analysis; format: cell-based, HEK-293T
[14] = target: Tyrosine-protein kinase JAK2 (Homo sapiens) (UniProt O60674); test: Inhibition of human JAK2 at 0.1 uM relative to control
[15] = system: RAF proto-oncogene serine/threonine-protein kinase (Homo sapiens), P04049 [Y340D,Y341D]; test: Inhibition of human RAF1 Y340D/Y341D double mutant at 0.1 uM relative to control
[16] = target: Serine/threonine-protein kinase Sgk1 (Homo sapiens) (UniProt O00141); test: Inhibition of human SGK1 at 0.1 uM relative to control
MV4-11 = test: Antitumor activity against human MV4-11 cells xenografted in nude mouse assessed as tumor growth inhibition at 25 mg/kg, po qd administered on day 8 to 12 measured during compound dosing; format: functional, organism-based
[17] = target: Glycogen synthase kinase-3 alpha (Homo sapiens) (UniProt P49840); test: Inhibition of human GSK3A at 0.1 uM relative to control
[18] = target: Tyrosine-protein kinase Lyn (Homo sapiens) (UniProt P07948); test: Inhibition of human LYNB at 0.1 uM relative to control
[19] = target: Inhibitor of nuclear factor kappa-B kinase subunit epsilon (Homo sapiens) (UniProt Q14164); test: Inhibition of human IKKepsilon at 0.1 uM relative to control
[20] = Plasma clearance in ICR mouse at 2 mg/kg, iv; format: ADME, organism-based
[21] = Half life in Sprague-Dawley rat at 10 mg/kg, po; format: ADME, organism-based; details: in vivo
[22] = target: Mitogen-activated protein kinase 8 (Homo sapiens) (UniProt P45983); test: Inhibition of human MAPK8 at 0.1 uM relative to control
[23] = target: Tyrosine-protein kinase JAK1 (Homo sapiens) (UniProt P23458); test: Inhibition of human JAK1 at 0.1 uM relative to control
[24] = target: High affinity nerve growth factor receptor (Homo sapiens) (UniProt P04629); test: Inhibition of human NTRK1 at 0.1 uM relative to control
[25] = Oral bioavailability in ICR mouse at 10 mg/kg; format: ADME, organism-based; details: in vivo
[26] = target: Serine/threonine-protein kinase B-raf (Homo sapiens) (UniProt P15056); test: Inhibition of human BRAF at 0.1 uM relative to control
Mus musculus [27] = test: Antitumor activity against human MOLM13 cells xenografted in SCID mouse assessed as increase in survival at 10 mg/kg, po qd administered on day 1 to 5 relative to vehicle-treated control; format: functional, MOLM-13
[28] = target: Receptor-type tyrosine-protein kinase FLT3 (Homo sapiens, UniProt P36888, ITD); test: Inhibition of FLT3 ITD mutant (unknown origin) phosphorylation expressed in HEK293T cells preincubated for 1 hr followed by FLT3 ligand addition for 5 mins by Western blot analysis; format: cell-based, HEK-293T
[29] = target: Serine/threonine-protein kinase Chk1 (Homo sapiens) (UniProt O14757); test: Inhibition of human CHK1 at 0.1 uM relative to control
[30] = target: Ribosomal protein S6 kinase beta-1 (Homo sapiens) (UniProt P23443); test: Inhibition of human RPS6KB1 at 0.1 uM relative to control

Sequence of Serine/threonine-protein kinase MRCK alpha (Homo sapiens) (Q5VT25 whole entry): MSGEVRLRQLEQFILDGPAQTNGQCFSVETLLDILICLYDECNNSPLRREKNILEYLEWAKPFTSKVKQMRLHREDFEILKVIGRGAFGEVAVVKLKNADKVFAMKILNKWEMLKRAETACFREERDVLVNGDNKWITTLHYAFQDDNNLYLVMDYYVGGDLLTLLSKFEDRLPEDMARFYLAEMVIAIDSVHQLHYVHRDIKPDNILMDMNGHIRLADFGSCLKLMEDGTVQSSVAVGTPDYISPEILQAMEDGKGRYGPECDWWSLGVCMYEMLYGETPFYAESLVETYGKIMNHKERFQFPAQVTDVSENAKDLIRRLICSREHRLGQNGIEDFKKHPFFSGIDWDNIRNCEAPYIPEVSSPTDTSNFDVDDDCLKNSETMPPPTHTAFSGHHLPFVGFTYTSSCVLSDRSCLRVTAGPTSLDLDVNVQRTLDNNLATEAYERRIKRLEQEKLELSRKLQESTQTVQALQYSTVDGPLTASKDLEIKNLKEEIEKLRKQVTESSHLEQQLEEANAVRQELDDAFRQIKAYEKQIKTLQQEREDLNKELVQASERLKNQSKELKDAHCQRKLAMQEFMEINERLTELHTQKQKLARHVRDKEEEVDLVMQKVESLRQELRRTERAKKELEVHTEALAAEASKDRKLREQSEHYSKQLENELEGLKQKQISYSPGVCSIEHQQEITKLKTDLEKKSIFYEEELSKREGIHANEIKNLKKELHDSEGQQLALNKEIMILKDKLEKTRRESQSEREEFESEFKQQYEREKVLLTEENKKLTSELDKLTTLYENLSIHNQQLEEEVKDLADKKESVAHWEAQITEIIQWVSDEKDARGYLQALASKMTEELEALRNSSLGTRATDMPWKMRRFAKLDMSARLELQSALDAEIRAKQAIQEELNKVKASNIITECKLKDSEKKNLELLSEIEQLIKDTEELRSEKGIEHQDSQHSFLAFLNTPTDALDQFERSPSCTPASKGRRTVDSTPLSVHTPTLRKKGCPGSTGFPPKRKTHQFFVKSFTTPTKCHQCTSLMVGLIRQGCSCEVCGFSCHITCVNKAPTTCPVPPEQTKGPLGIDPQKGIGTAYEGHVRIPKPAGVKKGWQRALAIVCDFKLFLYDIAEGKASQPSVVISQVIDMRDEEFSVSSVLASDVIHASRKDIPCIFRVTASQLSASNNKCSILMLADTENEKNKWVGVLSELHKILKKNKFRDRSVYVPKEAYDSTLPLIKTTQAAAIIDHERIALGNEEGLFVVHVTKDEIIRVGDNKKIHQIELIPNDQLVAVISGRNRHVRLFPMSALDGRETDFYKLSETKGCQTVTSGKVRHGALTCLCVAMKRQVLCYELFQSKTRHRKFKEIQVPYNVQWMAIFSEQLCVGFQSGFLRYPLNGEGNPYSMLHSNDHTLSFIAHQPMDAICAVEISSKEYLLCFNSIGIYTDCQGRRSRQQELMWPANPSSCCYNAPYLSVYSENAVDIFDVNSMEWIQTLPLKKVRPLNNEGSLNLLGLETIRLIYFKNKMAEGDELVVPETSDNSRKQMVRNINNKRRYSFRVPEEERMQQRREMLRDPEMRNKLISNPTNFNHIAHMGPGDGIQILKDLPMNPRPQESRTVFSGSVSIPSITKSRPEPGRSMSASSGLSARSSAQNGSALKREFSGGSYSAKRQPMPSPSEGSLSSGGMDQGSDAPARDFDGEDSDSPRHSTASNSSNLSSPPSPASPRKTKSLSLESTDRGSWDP
Sequence of Mitogen-activated protein kinase 8 (Homo sapiens) (P45983 whole entry): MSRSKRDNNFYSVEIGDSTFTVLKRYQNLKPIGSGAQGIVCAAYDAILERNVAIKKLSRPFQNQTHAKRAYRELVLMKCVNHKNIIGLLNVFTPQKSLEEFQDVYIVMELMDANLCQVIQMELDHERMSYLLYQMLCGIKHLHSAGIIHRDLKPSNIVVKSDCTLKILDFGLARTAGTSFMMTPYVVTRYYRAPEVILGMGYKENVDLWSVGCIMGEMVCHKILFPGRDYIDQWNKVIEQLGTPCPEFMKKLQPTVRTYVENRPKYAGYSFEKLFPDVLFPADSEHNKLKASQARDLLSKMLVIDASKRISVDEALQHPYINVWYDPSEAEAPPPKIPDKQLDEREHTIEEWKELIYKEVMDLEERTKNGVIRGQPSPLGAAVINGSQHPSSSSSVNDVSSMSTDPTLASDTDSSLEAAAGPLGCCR
Sequence of Serine/threonine-protein kinase Sgk1 (Homo sapiens) (O00141 whole entry): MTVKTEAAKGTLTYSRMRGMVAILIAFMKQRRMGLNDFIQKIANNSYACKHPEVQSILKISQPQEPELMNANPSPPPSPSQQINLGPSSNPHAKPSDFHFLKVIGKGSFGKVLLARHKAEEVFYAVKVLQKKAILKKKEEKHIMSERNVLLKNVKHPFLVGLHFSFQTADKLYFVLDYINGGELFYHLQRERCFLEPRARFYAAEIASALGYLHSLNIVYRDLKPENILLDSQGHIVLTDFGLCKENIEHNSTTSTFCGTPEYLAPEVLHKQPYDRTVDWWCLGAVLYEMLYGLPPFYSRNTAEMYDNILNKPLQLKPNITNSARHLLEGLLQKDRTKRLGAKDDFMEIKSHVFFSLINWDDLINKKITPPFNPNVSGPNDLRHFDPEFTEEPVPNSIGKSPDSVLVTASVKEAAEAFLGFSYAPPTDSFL
Sequence of Serine/threonine-protein kinase B-raf (Homo sapiens) (P15056 whole entry): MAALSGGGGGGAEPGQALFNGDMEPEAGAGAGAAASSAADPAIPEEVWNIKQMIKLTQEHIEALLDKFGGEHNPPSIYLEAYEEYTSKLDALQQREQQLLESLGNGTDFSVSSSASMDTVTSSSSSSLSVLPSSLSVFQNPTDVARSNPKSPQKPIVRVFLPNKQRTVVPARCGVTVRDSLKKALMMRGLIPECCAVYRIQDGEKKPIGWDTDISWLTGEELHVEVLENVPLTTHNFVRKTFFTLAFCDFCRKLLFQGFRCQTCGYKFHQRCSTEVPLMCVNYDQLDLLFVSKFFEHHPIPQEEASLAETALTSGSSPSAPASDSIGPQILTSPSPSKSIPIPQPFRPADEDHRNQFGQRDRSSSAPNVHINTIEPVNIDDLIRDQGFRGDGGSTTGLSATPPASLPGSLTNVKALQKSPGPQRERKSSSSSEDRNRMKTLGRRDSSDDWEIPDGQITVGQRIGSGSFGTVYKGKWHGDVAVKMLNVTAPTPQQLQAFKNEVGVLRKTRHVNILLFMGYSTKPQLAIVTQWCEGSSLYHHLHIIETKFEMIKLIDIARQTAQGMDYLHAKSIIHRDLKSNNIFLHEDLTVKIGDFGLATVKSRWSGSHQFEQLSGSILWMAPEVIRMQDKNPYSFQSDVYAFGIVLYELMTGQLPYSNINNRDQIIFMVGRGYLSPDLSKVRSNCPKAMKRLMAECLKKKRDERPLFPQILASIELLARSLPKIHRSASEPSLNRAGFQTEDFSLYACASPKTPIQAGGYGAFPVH
Sequence of Tyrosine-protein kinase Blk (Homo sapiens) (P51451 2-505 limits assumed): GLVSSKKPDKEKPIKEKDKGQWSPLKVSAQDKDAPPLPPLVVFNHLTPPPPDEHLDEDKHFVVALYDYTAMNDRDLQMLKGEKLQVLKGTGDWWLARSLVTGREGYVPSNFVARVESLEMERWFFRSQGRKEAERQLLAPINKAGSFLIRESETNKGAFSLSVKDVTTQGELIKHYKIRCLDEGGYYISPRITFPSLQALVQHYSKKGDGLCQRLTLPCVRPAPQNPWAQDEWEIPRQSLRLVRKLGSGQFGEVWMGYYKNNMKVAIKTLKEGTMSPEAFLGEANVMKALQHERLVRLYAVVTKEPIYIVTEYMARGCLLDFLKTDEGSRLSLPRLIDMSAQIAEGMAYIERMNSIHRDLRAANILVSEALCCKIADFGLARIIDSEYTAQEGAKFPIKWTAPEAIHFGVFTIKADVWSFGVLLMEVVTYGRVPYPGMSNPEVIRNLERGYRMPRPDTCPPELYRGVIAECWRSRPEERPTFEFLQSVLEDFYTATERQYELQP
Sequence of Fibroblast growth factor receptor 1 (Homo sapiens) (P11362 22-822 limits assumed): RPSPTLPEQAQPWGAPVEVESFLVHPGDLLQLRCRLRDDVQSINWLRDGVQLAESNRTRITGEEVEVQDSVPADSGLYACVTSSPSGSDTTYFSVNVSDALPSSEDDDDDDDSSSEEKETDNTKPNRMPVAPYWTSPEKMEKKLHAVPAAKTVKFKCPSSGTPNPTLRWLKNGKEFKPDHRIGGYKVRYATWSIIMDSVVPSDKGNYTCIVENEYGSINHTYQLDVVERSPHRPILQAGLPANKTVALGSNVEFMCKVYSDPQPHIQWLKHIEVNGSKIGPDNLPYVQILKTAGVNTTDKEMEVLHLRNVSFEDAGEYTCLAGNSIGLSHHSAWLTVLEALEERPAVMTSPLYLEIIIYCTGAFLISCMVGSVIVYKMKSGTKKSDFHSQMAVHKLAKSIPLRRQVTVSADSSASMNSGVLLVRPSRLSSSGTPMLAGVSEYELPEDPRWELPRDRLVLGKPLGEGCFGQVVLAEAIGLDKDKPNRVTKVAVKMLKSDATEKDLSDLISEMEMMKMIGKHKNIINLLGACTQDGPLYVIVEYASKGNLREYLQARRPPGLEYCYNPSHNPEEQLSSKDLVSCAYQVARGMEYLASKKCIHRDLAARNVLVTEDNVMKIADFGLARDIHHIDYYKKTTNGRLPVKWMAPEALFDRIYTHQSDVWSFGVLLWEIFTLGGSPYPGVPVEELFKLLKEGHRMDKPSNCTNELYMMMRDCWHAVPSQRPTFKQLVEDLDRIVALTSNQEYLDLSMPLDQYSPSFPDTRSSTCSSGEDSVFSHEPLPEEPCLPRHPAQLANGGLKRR

SMILES: CCc1cc(NC(=O)Nc2ccc(-c3cnc(Nc4cc(N5CCN(CC)CC5)nc(C)n4)s3)cc2)no1
- inhibition [1]: 66%
- inhibition [2]: 78%
- inhibition [3]: 44%
- inhibition [4]: 10%
- inhibition [5]: 0%
- inhibition [6]: 65%
- inhibition [7]: 5%
- GI50 [8]: 2 nM
- inhibition [9]: 0%
- inhibition in vivo at 10 mg/kg/day (animal or person): 68%
- clearance [10]: 31.6 mL/min/kg
- inhibition [11]: -7%
- Activity (Mus musculus [12]): 90%
- IC50 [13]: 10 nM
- inhibition [14]: -3%
- inhibition [15]: 21%
- inhibition [16]: 2%
- TGI (MV4-11): Active
- inhibition [17]: 2%
- inhibition [18]: 88%
- inhibition [19]: 18%
- clearance [20]: 82 mL/min/kg
- half-life [21]: 4.3 h
- inhibition [22]: 15%
- inhibition [23]: -8%
- inhibition [24]: 82%
- bioavailability [25]: 35%
- inhibition [26]: 36%
- Activity (Mus musculus [27]): 45%
- IC50 [28]: 10 nM
- inhibition [29]: 17%
- inhibition [30]: 22%
